We go through 3 molecules from patent US10981926B2 (Janssen Pharmaceutica NV, priority 2016, dated 2021).

Test [1] deals with androgen dependent signaling (androgen sensitive organs). As to the kind of experiment: Hershberger Assay. Conditions: 3 mg/kg (positive control), 10 days, with TP 0.4 mg/kg, castrated rats, mean ± SD (n=6). The format is in vivo, rat. Here is the method: The effect of AR antagonists on androgen dependent signaling in vivo was assessed using the Hershberger assay. In this assay, peripubertal castrated male Sprague-Dawley rats were administered AR antagonists described herein in the presence of testosterone (0.4 mg/kg testosterone propionate) and the weights of androgen dependent organs measured. Dosing was continued for 10 days and measurements taken 24 h after the last dose. The extent of antagonism of AR and consequent inhibition of organ growth was evaluated by comparison to the castration control. Compounds of Formula (I) were dosed orally QD and an endpoint assessment made by change in weight of 5 androgen sensitive organs (ASO): Paired Cowper's Glands (CG), Seminal Vesicles with Fluids and Coagulating Glands (SVCG), Glans Penis (GP), Ventral Prostate (VP) and Levator Ani-Bulbocavernosus Complex (LABC)). According to assay guidelines, statistically significant suppression of ASO is required in 2 of 5 organs for a compound to be classified as an anti-androgen (analysis was performed by t-test/Mann-Whitney).
Unless otherwise stated, compounds defined herein were administered at 30 mg/kg and flutamide (FT), positive control, at 3 mg/kg. All compounds were co-administered with testosterone propionate (TP, 0.4 mg/kg) which was also administered alone, untreated control, (castrated only rats served as the control for complete androgen blockade). A statistically significant change in ASO achieved in at least 2 of 5 organs was indicative of an active compound.

The target of test [2] is T1, wild-type Androgen Receptor (AR-wt) (Homo sapiens (Human), UniProt P10275). Description: LNCaP-AR-wt ANT reporter assay (antagonist mode). Format: cell-based. The settings on record: for IC50: antagonist mode, pIC50 = −Log10(IC50 in Molar), read-out: LNCaP-AR-wt ANT pIC50 (converted); for Emax: maximum % inhibition of R1881 control response over the tested concentration range, read-out: LNCaP-AR-wt ANT MAX % Inh.
T1 sequence (P10275 whole entry): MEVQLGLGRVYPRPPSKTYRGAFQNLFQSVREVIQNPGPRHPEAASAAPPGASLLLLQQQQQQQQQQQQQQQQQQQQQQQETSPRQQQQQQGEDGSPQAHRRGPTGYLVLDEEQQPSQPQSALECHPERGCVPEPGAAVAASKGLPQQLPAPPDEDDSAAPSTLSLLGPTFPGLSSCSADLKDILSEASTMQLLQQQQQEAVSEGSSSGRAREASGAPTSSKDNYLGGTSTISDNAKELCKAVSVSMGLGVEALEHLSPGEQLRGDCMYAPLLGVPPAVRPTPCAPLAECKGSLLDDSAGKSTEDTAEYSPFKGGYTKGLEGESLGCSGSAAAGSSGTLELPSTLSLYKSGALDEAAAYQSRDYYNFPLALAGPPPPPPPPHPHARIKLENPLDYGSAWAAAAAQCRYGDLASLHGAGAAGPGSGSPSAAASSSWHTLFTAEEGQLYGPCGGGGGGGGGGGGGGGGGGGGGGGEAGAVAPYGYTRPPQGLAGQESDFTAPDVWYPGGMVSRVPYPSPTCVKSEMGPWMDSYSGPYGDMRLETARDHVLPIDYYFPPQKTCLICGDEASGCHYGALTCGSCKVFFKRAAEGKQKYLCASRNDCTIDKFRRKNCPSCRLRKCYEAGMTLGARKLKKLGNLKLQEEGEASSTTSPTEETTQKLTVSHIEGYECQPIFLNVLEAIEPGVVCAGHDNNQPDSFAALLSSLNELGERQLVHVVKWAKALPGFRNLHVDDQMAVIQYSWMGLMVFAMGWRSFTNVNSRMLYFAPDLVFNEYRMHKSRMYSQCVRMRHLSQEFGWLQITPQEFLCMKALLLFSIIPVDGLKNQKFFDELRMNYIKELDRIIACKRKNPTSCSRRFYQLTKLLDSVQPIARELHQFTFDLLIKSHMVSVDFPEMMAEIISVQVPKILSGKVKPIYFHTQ

The target of test [3] is T1, wild-type Androgen Receptor (AR-wt). As to the kind of experiment: LNCaP-AR-wt AG reporter assay (agonist mode). The format is cell-based. Conditions: for EC50: agonist mode, pEC50 = −Log10(EC50 in Molar), read-out: LNCaP-AR-wt AG pEC50 (converted); for Emax: maximum % stimulation (agonist response) over the tested concentration range, read-out: LNCaP-AR-wt AG MAX % Stim.

Test [4] addresses T2, F876L mutant Androgen Receptor (AR-F876L) (Homo sapiens (Human), UniProt P10275, F877L). As to the kind of experiment: LNCaP-AR-F876L ANT reporter assay (antagonist mode). The format is cell-based. Conditions: for IC50: antagonist mode, pIC50 = −Log10(IC50 in Molar), read-out: LNCaP-AR-F876L ANT pIC50 (converted); for Emax: maximum % inhibition of R1881 control response over the tested concentration range, read-out: LNCaP-AR-F876L ANT MAX % Inh.

In test [5] the target is T2, F876L mutant Androgen Receptor (AR-F876L). Description: LNCaP-AR-F876L AG reporter assay (agonist mode). The format is cell-based. The settings on record: for EC50: agonist mode, pEC50 = −Log10(EC50 in Molar), read-out: LNCaP-AR-F876L AG pEC50 (converted); for Emax: maximum % stimulation (agonist response) over the tested concentration range, read-out: LNCaP-AR-F876L AG MAX % Stim.

The next test relates to rGABA-gated Cl− channel. As to the kind of experiment: GABA-Gated Cl Channel Antagonist Radioligand Binding Assay. Conditions: 10 μM single point, [35S]-TBPS, cerebral cortex membrane homogenates. On the set-up: species or system rat. A digest of the protocol: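 Rat cerebral cortex membranes (120 μg protein) incubated 120 min at 22° C with 3 nM […] in 50 mM Na2HPO4/KH2PO4 pH 7.4, 500 mM NaCl; nonspecific binding defined with 20 μM picrotoxinin. Bound label counted after filtration; values are percent inhibition of specific binding at 10 μM compound.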

T2 sequence (P10275 whole entry F877L): as the sequence (P10275 whole entry) above, with F877L counted along it

In the case of `CC(C)C(=O)Nc1ccc([N+](=O)[O-])c(C(F)(F)F)c1` [Flutamide, flutamide, reference compound], in test [1], the “ASO Organ Growth (% of TP control) SVCG” value is given as 16.6 ± 16.3 % of TP control and the “ASO Organ Growth (% of TP control) VP” value is 24.4 ± 35.5 % of TP control.
For the molecule `CN1CC(COc2ccc(N3C(=S)N(c4cnc(C#N)c(C(F)(F)F)c4)C(=O)C34CCC4)cc2)C1` [Cpd 59, 5-[8-[4-[(1-methylazetidin-3-yl)methoxy]phenyl]-5-oxo-7-thioxo-6,8-diazaspiro[3.4]octan-6-yl]-3-(trifluoromethyl)pyridine-2-carbonitrile], the figures for the IC50 in test [2] and in test [4] were 135 nM and 56.2 nM, respectively. The Emax in test [2] worked out at 102%; in test [3], 0%; in test [4] it was 100%; in test [5], 0.1%. Moreover, the EC50 in test [3] and in test [5] was > 15100 nM throughout. Moreover, the “rGABA-gated Cl− channel % inh @10 μM” value in the test with rGABA-gated Cl− channel turned out to be 16.0%.
Turning to `N#Cc1ncc(N2C(=O)C3(CCC3)N(c3ccc(O[C@H]4CCNC[C@H]4F)cc3)C2=S)cc1C(F)(F)F` (racemic) [Cpd 96, 5-[8-(3RS, 4SR) [4-[(3-fluoro-4-piperidyl)oxy]phenyl]-5-oxo-7-thioxo-6,8-diazaspiro[3.4]octan-6-yl]-3-(trifluoromethyl)pyridine-2-carbonitrile], the IC50 was 126 nM in test [2] and 74.1 nM in test [4]. For the same molecule, the Emax in test [2] turned out to be 100%; in test [3], 0.9%; in test [4] it was 99.9%; in test [5], 0.4%. In addition, the EC50 in test [3] and in test [5] was > 15100 nM throughout. The “rGABA-gated Cl− channel % inh @10 μM” value in the test with rGABA-gated Cl− channel turned out to be 26.5%.
